Laboratory results published in patent US20130231377A1, “PACTAMYCIN ANALOGS AND METHODS OF USE” (State of Oregon acting by and through the state Board of …, priority 2010, published 2013).

Assays:
[1] = test system: chloroquine-sensitive clone D6 of P. falciparum; assay: Antimalarial activity assay, SYBR Green I fluorescence-based method; format: cell-based, Plasmodium falciparum; conditions: Plasmodium falciparum
Experimental: (§1) An antimalarial activity assay was carried out at the Oregon Translational Research and Drug Development Institute (OTRADI). Two strains of P. falciparum were used. The chloroquine-sensitive clone D6, and chloroquine-resistant and MDR clone Dd2 was obtained from the Malaria Research and Reference Reagent Resource Center (MR4) (Manassas, Va.). The parasites were cultured according to the method of Trager and Jensen (Trager and Jensen, Science, 1976, 193:673-675), with minor modifications. The cultures were maintained in human erythrocytes (Lampire Biological Laboratories, Pipersville, Pa.), suspended at 2% hematocrit in RPMI 1640 (Sigma) containing 0.5% Albumax (Invitrogen), […] hypoxanthine (Lancaster), and 50 μg/L gentamicin (Invitrogen), and incubated at 37° C. under a gas mixture of 5% O2, 5% CO2, and 90% N2. In vitro antimalarial activity was determined by a SYBR Green I fluorescence-based method described previously by Smilkstein et al. (Smilkstein et al., Antimicrob. Agents Chemother., 2004, 48:1803-1806). Frozen stock solutions of each test drug (1 mM in DMSO) were thawed, warmed to 37° C., and mixed thoroughly prior to use. Drug solutions were serially diluted with culture medium, and distributed to asynchronous parasite cultures on 96-well plates in quadruplicate in a total volume of 100 μL to achieve 0.2% parasitemia with a 2% hematocrit in a total volume of 100 μL. Automated pipeting and dilution was carried using programmable Precision XS (Bio-Tek, Winooski, Vt.) and Sciclone ALH3000 (Caliper, Hopkinton, Mass.) robotic stations. The plates then were incubated for 72 hours at temperature and gas conditions described above. After incubation, 100 μL of lysis buffer with SYBR Green I was added to each well. The plates were incubated at room temperature for 1 h and then placed in a 96-well fluorescence plate reader (Synergy4, BioTek, Winooski, Vt.) with excitation and emission wavelength at 485 nm and 528 nm, respectively, for measurement of fluorescence. The 50% inhibitory concentration (IC50) was determined by non-linear regression analysis of logistic dose-response curves (GraphPad Prism software).

[2] = test system: chloroquine-resistant and MDR clone Dd2 of P. falciparum; assay: as above; format: cell-based, Plasmodium falciparum
Experimental: as §1

[3] = test system: HT-29 human colon carcinoma cells; assay: SRB growth inhibition assay in HT-29 cells; format: cell-based; conditions: HT-29 cells, 24 hours
Experimental: Growth inhibition of HT-29 cells induced by the test compounds was also evaluated by the SRB assay, which is based on measuring total biomass by staining the cellular proteins with sulforhodamine B (Skehan et al., J. Natl. Cancer Inst., 1990, 82:1107). After treating the HT-29 cells with the compounds for 24 hours, the adherent cells grown in 96-well plates were fixed with 10% trichloroacetic acid and incubated for 1 hour at 4° C. The plates were washed five times with tap water, dried, and stained with SRB solution (0.4% wt/vol in 1% acetic acid) for 30 minutes at room temperature. The plates were again washed and dried before adding 10 mM Tris base to solubilize the bound stain. Optical densities (OD) were read at 564 nm in SpectraMax 250 and cell growth of treated cells was expressed as the percentage of control cells, ODtest/ODcontrol×100%.

E. coli = assay: Antibacterial agar diffusion assay (Example 2); format: cell-based, Escherichia coli
Experimental: (§2) Antibacterial activity of pactamycin and its analogues was determined by an agar diffusion assay. E. coli, Pseudomonas aeruginosa, Mycobacterium smegmatis, and Staphylococcus aureus were streaked on nutrient agar (Difco) and grown overnight at 37° C. Colonies were transferred to nutrient broth and incubated at 37° C. for 24 hours. Turbidity of the inoculum was measured to a proper density at 600 nm (BioRad, SmartSpec 3000). For plate preparation, inoculum (500 μL) was mixed thoroughly with warm nutrient agar (50 mL) and poured to 25 mL square plates. The agar plates were allowed to solidify and dry for 30 minutes before assay. Sterile blank paper disks (Becton-Dickinson) were impregnated with pactamycin and its analogues (20 μL) at various concentrations and dried at room temperature. The disks were placed onto inoculated agar plates and incubated at 37° C. for 24 hours. In order to produce a contrast background of the inhibition zone, 0.25% MTT developing dye (1 mL) was added over the plates.

[4] = test system: human colon cancer HT-29 cells; assay: MTT cell viability assay in HT-29 cells; format: cell-based
Experimental: The MTT assay was carried out as described by Mosmann (J. Immunol. Methods, 1983, 65:55). Briefly, human colon cancer HT-29 cells (ATCC) were seeded in 96-well plates at a density of 1.0×10^4 cells per well. The growth medium consisted of phenol red-free RPMI 1640 (Invitrogen, Carlsbad, Calif.) containing 10% fetal bovine serum (Invitrogen, Carlsbad, Calif.), glutamine (2 mM), penicillin (100 units/mL) and streptomycin (100 μg/mL). After a 24-hour incubation at 37° C. in a humidified atmosphere of 5% CO2, the medium was removed and replaced with fresh RPMI 1640 medium (with or without 10% FBS and no penicillin or streptomycin). Increasing concentrations of pactamycin, pactamycate, de-6MSA pactamycin, or de-6MSA-pactamycate dissolved in DMSO were added to cells at a volume of 0.2 mL/well. DMSO was added to control media not to exceed a final concentration of 1%. Following a 24-hour incubation, the medium was aspirated from each well and replaced with fresh RPMI medium with 10% FBS and MTT (0.5 mg/mL). […] The plate was shaken for 10 minutes before reading the absorbance at 570 nm using a microplate reader (SpectraMax 250, Molecular Devices, Sunnyvale, Calif., USA). The viability of treated cells was expressed as the percentage of control cells. […]

[5] = test system: Gram-positive and Gram-negative bacteria (S. aureus, M. smegmatis, P. aeruginosa, E. coli); assay: Antibacterial dose-response studies, broth microdilution (Example 2); format: cell-based; conditions: 0.01 (or 0.1)-100 μM
Experimental: Dose response assays were performed at a 100-μL volume in 200 μL Eppendorf tubes. The compounds were diluted and added to the bacterial suspension at final concentrations of 0.01 (or 0.1)-100 μM. After incubation at 37° C. for 24 hours, turbidity of cultures was measured at 600 nm (Biorad, SmartSpec 3000). Each assay was done in triplicate.
To further evaluate and compare the in vitro efficacy of de-6MSA-pactamycin with that of pactamycin, dose-response studies were done using a broth microdilution method with 0.01 (or 0.1)-100 μM concentrations of pactamycin and de-6MSA-pactamycin (FIGS. 16A-16D). […] Both pactamycin and de-6MSA-pactamycin were maximally active between 1 and 10 μM and effective against both Gram-positive and Gram-negative bacteria.

Pseudomonas aeruginosa [6] = assay: Antibacterial agar diffusion assay (Example 2); format: cell-based
Experimental: as §2

Mycobacterium smegmatis = assay: Antibacterial agar diffusion assay (Example 2); format: cell-based
Experimental: as §2

Staphylococcus aureus [7] = assay: Antibacterial agar diffusion assay (Example 2); format: cell-based
Experimental: as §2

Pseudomonas aeruginosa [8] = assay: Antibacterial micro-dilution assay (Example 1); format: cell-based; conditions: 24 hours, read-out: IC50 against Pseudomonas aeruginosa
Experimental: (§3) The antibacterial activity of pactamycin and its analogs was determined by agar diffusion and micro-dilution assays. E. coli, P. aeruginosa, B. subtilis or M. smegmatis, and S. aureus were streaked on nutrient agar (Difco or Beckton-Dickinson) and grown overnight at 37° C. Colonies were transferred to nutrient broth and incubated at 37° C. for 24 hours. Turbidity of the inoculum was measured to a proper density at 600 nm (BioRad, SmartSpec 3000). For plate preparation, inoculum (500 μL) was mixed thoroughly with warm nutrient agar (50 mL) and poured to 25 mL square plates. The agar plates were allowed to solidify and dry for 30 min before assay. Sterile blank paper disks (Becton-Dickinson) were impregnated with pactamycin and its analogs (20 μL) at various concentrations and dried at room temperature. The disks were placed onto inoculated agar plates and incubated at 37° C. for 24 hours. In order to produce a contrast background of the inhibition zone, 0.25% MTT developing dye (1 mL) was added over the plates.
(§4) Micro-dilution assays were performed in 96-well plates. The compounds were serially diluted and added to the bacterial suspension at final concentrations of 1 mM-10 nM, or 0.5 mM-10 nM. After incubation at 37° C. for 24 hours, 0.25% MTT developing dye (50 μL) was added. Each assay was done in triplicate.

Escherichia coli = assay: Antibacterial micro-dilution assay (Example 1); format: cell-based; conditions: 24 hours, read-out: IC50 against Escherichia coli
Experimental: as §3, §4

Bacillus subtilis = assay: Antibacterial micro-dilution assay (Example 1); format: cell-based; conditions: 24 hours, read-out: IC50 against Bacillus subtilis
Experimental: as §3, §4

Staphylococcus aureus [9] = assay: Antibacterial micro-dilution assay (Example 1); format: cell-based; conditions: 24 hours, read-out: IC50 against Staphylococcus aureus
Experimental: as §3, §4

[10] = test system: Gram-positive and Gram-negative bacteria; assay: Antibacterial agar diffusion and micro-dilution assays, all tested strains (Example 1); format: cell-based, S. aureus, B. subtilis, P. aeruginosa, E. coli; conditions: at the concentrations used
Experimental: as §3, §4

[11] = Cytotoxicity assay (WST-8) against HCT116 cells; format: cell-based; conditions: human, HCT116 colorectal carcinoma cells, estimated
Experimental: HCT116 (colorectal carcinoma) cells were seeded onto a 96-well plate at 10,000 cells per well. Cells were treated with either 5, 50, 500 or 5000 nM TM-025, TM-026, N-acetyl-glucosaminyl-3-aminoacetophenone or 5, 25, 50, 100 nM pactamycin in triplicate for 48 hours. For the narrow range concentration assays, cells were treated with either 0.5, 1, 2 or 4 μM TM-025; 1, 2, 3 or 5 μM TM-026; 0.5, 2, 5 or 7 μM N-acetylglucosaminyl-3-aminoacetophenone or 12.5, 25, 50, 100 nM pactamycin in triplicate for 24 or 48 hours. WST-8 [2-(2-methoxy-4-nitrophenyl)-3-[…], monosodium salt] (Dojindo, Rockville, Md.) was added to each well to give an orange-colored formazan product, which is soluble in tissue culture medium. Absorbance was measured at 450 nm. Percent of viable cells was calculated relative to the “No Treatment” and “Solvent Only” wells.

Row | SMILES | EC50 ([1]; D6, Example 2, FIG. 14, read-out: EC50 against the D6 strain) [nM] | EC50 ([2]; Plasmodium falciparum, Example 2, FIG. 14, multi-drug resistant Dd2, read-out: EC50 against the Dd2 strain) [nM] | times more effective than chloroquine against Dd2 ([2]; relative to chloroquine) [times] | cytotoxicity profile (SRB-based assay) [3] | antibacterial activity, growth of E. coli (E. coli) | cytotoxicity profile (MTT-based assay) [4] | biological activity compared with pactamycin in dose-response studies [5] | antibacterial activity, growth of Pseudomonas aeruginosa (Pseudomonas aeruginosa [6]) | antibacterial activity, growth of Mycobacterium smegmatis (Mycobacterium smegmatis) | antibacterial activity, growth of Staphylococcus aureus (Staphylococcus aureus [7]) | IC50 ([1]; D6, 72 h, P. falciparum D6, 72 hours, read-out: Antimalarial IC50 (D6)) [nM] | IC90 ([1]; D6, 72 h, P. falciparum D6, 72 hours, read-out: Antimalarial IC90 (D6)) [nM] | IC50 ([2]; Plasmodium falciparum, DD2, 72 h, P. falciparum Dd2, 72 hours, read-out: Antimalarial IC50 (Dd2)) [nM] | IC90 ([2]; Plasmodium falciparum, DD2, 72 h, P. falciparum Dd2, 72 hours, read-out: Antimalarial IC90 (Dd2)) [nM] | IC50 (Pseudomonas aeruginosa [8]) [nM] | IC50 (Escherichia coli) [nM] | IC50 (Bacillus subtilis) [nM] | IC50 (Staphylococcus aureus [9]) [nM] | antibacterial activity in agar diffusion and micro-dilution assays (in words) [10] | IC50 [11] [nM]
1 | CC(=O)c1cccc(N[C@H]2[C@H](N)[C@@](NC(=O)N(C)C)([C@H](C)O)[C@@](C)(O)[C@@]2(O)CO)c1 [de-6MSA-pactamycin] | 7 | 9 | 10 | equivalent cytotoxicity profiles with the respective parent compounds | inhibited the growth | equivalent cytotoxicity profiles with the respective parent compounds | equivalent biological activity with the parent molecule | inhibited the growth | inhibited the growth | inhibited the growth |  |  |  |  |  |  |  |  |  | 
2 | CC(=O)c1cccc(N[C@H]2[C@H](N)[C@@](NC(=O)N(C)C)([C@H](C)O)[C@@](C)(O)[C@@]2(O)COC(=O)c2c(C)cccc2O)c1 [pactamycin] |  |  |  |  | inhibited the growth |  |  | inhibited the growth | inhibited the growth | inhibited the growth | ~24 | 124 | ~21 | 187 | ~500000 | ~100000 | ~500000 | ~10000 | strong antibacterial activity | ~100
